Laboratory results: US20090176773A1, “Non-Peptidic Inhibitors of AKAP/PKA Interaction” (FORSCHUNGSVERBUND BERLIN E.V., priority 2005, published 2009)

Assays:
[1] = test system: vasopressin (AVP)-dependent redistribution of the aquaporin-2 (AQP2) water channel in renal principal cells (IMCD cells); assay: AVP-induced redistribution of AQP2 in primarily cultured IMCD cells (immunofluorescence, laser scanning microscope); format: cell-based, rat; conditions: FIG. 18 and 21
Experimental: Initially, collecting duct cells from the inner medulla of rat kidneys (IMCD cells) can be stimulated with AVP in the presence or absence of the substances so as to stimulate AQP2 translocation. Thereafter, immunofluorescence staining can be performed, wherein the cells—following incubation—are fixed and made permeable. Using antibodies coupled to fluorescent dyes, the intracellular localization of AQP2 can subsequently be determined under a fluorescence microscope. In this way it is possible to investigate the influence of the substances on the presumably AKAP18delta-dependent translocation of AQP2.
Inhibition of the vasopressin (AVP)-dependent redistribution of the aquaporin-2 (AQP2) water channel in renal principal cells by the substances specified (see Table B; concentrations of inhibitors in μM). Primarily cultured principal cells from the inner medulla of rat kidneys (IMCD cells) represent a model for the AVP-induced translocation of AQP2. Said redistribution is the molecular basis of AVP-induced water reabsorption in the kidneys. AQP2 was detected by means of a specific antiserum and Cy3-labelled secondary antibodies in untreated cells (control) and in cells treated with AVP or substances, using a laser scanning microscope (Tamma et al., 2003; Henn et al., 2004).
Effect of the low-molecular weight substances 18882, 990 and 990 derivatives SM61 and SM65 on AVP-induced redistribution of AQP2 in IMCD cells (see FIG. 18). The structures and chemical properties of the substances are illustrated in Tables A, B and C (concentrations of inhibitors in μM). AQP2 was detected by means of a specific antiserum and Cy3-labelled secondary antibodies in untreated cells (control) and in cells treated with AVP or substances, using a laser scanning microscope (Tamma et al., 2003; Henn et al., 2004). […] In contrast, the substances 18882 and the 990 derivative SM65 have no influence on AVP-induced AQP2 redistribution at the concentrations used.

[2] = biological target: T1, interaction of AKAP18delta with regulatory RIIalpha subunits of PKA in IMCD cells (Rattus norvegicus, UniProt P12368+Q6JP77); assay: cAMP agarose precipitation, Western blot and RII overlay in IMCD cells; format: cell-based; conditions: 100 μM, 30 min, FIG. 22
T1 construct: endogenous in cells; host or cells: primary cultured rat IMCD cells
T1 sequence (Q6JP77 whole entry): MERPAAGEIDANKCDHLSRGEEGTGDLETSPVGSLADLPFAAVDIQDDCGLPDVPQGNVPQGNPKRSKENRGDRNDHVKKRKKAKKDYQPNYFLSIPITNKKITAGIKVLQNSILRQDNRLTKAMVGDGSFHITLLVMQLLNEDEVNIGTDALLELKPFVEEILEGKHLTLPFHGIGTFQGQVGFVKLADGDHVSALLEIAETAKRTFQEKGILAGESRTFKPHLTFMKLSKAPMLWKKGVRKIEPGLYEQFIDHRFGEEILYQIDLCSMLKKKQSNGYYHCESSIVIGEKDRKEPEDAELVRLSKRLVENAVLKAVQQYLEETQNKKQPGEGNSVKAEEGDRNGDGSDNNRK
T1 sequence (P12368 whole entry): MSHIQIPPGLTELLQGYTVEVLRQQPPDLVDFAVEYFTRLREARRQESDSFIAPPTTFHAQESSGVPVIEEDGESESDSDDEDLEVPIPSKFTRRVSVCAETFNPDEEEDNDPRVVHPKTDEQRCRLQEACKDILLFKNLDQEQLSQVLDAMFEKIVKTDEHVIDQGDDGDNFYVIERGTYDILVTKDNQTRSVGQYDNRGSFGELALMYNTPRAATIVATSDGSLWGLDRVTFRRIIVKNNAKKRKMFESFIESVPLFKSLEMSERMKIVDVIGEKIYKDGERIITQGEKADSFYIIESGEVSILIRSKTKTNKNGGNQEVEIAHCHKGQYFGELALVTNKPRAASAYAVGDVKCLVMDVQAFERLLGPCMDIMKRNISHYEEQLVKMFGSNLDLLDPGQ
Experimental: The substance (see Tables A, B and D) was identified by screening a substance library comprising 20,064 compounds, using the ELISA-based test array illustrated in FIG. 17. Primarily cultured IMCD cells either remained untreated (control) or were incubated for 30 min with substance 990 (100 μM) or with cAMP as negative control. Subsequently, the cells were lysed and subjected to cAMP agarose precipitation (Henn et al., JBC 279, 26654, 2004).
A: AKAP18delta was detected in the lysates and in the cAMP agarose precipitates (cAMP agarose) using the AKAP18delta-specific antibody A18delta4 in a Western blot (Henn et al., 2004). cAMP was added to the batch as negative control. As a result, binding of regulatory subunits of PKA to the cAMP agarose was inhibited in a competitive fashion. For this reason, no AKAPs are precipitated and, as a consequence, AKAP18delta cannot be detected in this sample. AKAP18delta produced in a recombinant fashion was used as positive control.
B: To detect the AKAPs in the lysates and cAMP agarose precipitates, an RII overlay was carried out (Henn et al., JBC 279, 26654, 2004). AKAP18delta produced in a recombinant fashion was detected as positive control. AKAP18delta is indicated by arrows in A and B.

[3] = biological target: T2, interaction of AKAP18delta with regulatory RIIalpha subunits of PKA in myocardial cells (Rattus norvegicus, UniProt P12368+Q6JP77); assay: cAMP agarose precipitation, Western blot and RII overlay in neonatal myocardial cells; format: cell-based; conditions: 100 μM, 30 min, FIG. 23
T2 construct: endogenous in cells; host or cells: primary cultured neonatal (rat) myocardial cells
T2 sequence (P12368 2-401): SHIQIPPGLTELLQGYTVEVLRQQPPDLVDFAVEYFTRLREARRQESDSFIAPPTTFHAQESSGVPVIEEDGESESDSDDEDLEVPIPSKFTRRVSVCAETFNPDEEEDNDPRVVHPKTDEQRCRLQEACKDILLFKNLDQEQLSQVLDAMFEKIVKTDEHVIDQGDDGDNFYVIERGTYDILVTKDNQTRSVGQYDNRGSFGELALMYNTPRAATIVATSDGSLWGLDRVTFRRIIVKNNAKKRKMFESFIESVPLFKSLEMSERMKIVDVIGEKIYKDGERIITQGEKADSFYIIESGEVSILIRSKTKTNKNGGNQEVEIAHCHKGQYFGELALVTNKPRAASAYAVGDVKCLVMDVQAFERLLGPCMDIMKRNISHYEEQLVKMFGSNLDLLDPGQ
T2 sequence (Q6JP77 whole entry): as the sequence (Q6JP77 whole entry) above
Experimental: In contrast, substance 990 has no influence on this interaction. The substances (see Tables A, B and D) were identified by screening a substance library comprising 20,064 compounds, using the ELISA-based test array illustrated in FIG. 17. Primarily cultured neonatal myocardial cells either remained untreated (control) or were incubated for 30 min with the substances 990, 18882 (100 μM each time) or with cAMP as negative control. Subsequently, the cells were lysed and subjected to cAMP agarose precipitation (Henn et al., JBC 279, 26654, 2004). A: AKAP18delta was detected in the lysates and in the cAMP agarose precipitates (cAMP agarose), using the AKAP18delta-specific antibody A18delta4 in a Western blot (Henn et al., JBC 279, 26654, 2004). cAMP was added to the batch as negative control. As a result, binding of regulatory subunits of PKA to the cAMP agarose was inhibited in a competitive fashion. For this reason, no AKAPs are precipitated and, as a consequence, AKAP18delta cannot be detected in this sample. AKAP18delta produced in a recombinant fashion was used as positive control. B: Using Western blotting, regulatory RIIbeta subunits of PKA were detected in the same samples as specified in A. As expected, no RIIbeta is detected in the sample containing cAMP (see A.). […] AKAP18delta produced in a recombinant fashion was detected as positive control.

[4] = test system: L-type Ca^2+ channel currents; assay: Patch-clamp measurement of L-type Ca2+ channel currents in neonatal rat myocardial cells; format: cell-based; conditions: isoproterenol 1 μM stimulation, FIG. 24
Text: Another experiment is measurement of the Ca^2+ currents through L-type Ca^2+ channels in primarily cultured myocardial cells from neonatal rats using the patch clamp technique. To this effect, membrane sections of a single cell are fixed by a buffer-filled glass capillary, and a constant voltage is applied across the membrane. A current pulse can trigger a measurable increase of the Ca^2+ current through the voltage-dependent L-type Ca^2+ channels situated in the fixed membrane region.
After stimulating the cells with the non-specific β-adrenoreceptor agonist isoproterenol, an increase of the Ca^2+ channel current is to be expected because receptor activation triggers the AKAP18alpha-dependent signal cascade described in section 3.3. As a result, the L-type Ca^2+ channel is phosphorylated, thereby increasing its open probability. Such measurements can be performed in the presence or absence of the substances, so that the effect on the signaling pathway can be quantified indirectly via the currents being measured.
L-type Ca^2+ channel currents were measured in neonatal rat myocardial cells using the patch-clamp technique. The cells were held at −70 mV and repeatedly depolarized to a test potential of 0 mV (after an increase to −35 mV for 400 ms). […] Currents were measured 400 s after the whole cell configuration had established. […]

With `N=C(N)SCc1cccc2ccccc12` [Compound 990] the “Effect on AVP-induced redistribution of AQP2” value [1] was “prevents the AVP-induced redistribution of AQP2”, the “Inhibition of AKAP18delta-RIIalpha interaction in IMCD cells” value [2] was “inhibits the interaction” and the “Inhibition of AKAP18delta-RIIalpha interaction in myocardial cells” value [3] was “no influence”.

In the case of `Nc1cc(Cc2ccc(O)c(N)c2)ccc1O` [Compound 18882], the “Effect on AVP-induced redistribution of AQP2” value [1] is reported as “no influence”, the “Inhibition of AKAP18delta-RIIalpha interaction in myocardial cells” value [3] is reported as “inhibits the interaction” and the “Effect on L-type Ca2+ channel currents” value [4] is reported as “Inhibition of L-type Ca^2+ channel currents”.
